Results from ChEMBL document CHEMBL3792338, “Discovery of biaryls as RORγ inverse agonists by using structure-based design” (Bioorg Med Chem Lett, 2016).
pEC50, pIC50: −log10 of the molar value. In brackets after ≈: the same amount, converted by molar mass.

Key:
[1] = target: T1, Nuclear receptor ROR-gamma (Homo sapiens, UniProt P51449); test: Inverse agonist activity at recombinant human GST-tagged ROR-gamma receptor ligand binding domain assessed as inhibition of receptor and co-activator TRAP220 interaction by FRET assay
T1 sequence (P51449 whole entry): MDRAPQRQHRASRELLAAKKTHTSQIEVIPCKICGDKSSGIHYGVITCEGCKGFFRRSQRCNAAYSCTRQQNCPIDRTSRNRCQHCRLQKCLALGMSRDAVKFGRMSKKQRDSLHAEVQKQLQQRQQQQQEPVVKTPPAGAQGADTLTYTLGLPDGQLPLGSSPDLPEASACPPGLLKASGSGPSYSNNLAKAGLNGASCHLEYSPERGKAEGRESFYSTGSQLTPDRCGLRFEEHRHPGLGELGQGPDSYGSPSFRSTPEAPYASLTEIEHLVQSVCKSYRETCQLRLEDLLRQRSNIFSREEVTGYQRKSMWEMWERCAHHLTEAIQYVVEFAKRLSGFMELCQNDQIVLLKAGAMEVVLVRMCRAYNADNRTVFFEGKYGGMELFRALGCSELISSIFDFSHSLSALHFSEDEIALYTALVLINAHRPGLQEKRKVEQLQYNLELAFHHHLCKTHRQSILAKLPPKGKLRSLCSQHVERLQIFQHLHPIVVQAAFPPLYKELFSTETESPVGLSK

[2] = Aqueous solubility of compound at pH 6.8; assay type: physicochemical
[3] = target: T2, Nuclear receptor subfamily 1 group I member 2 (Homo sapiens, UniProt O75469); test: Agonist activity at PXR (unknown origin) at 10 uM
T2 sequence (O75469 whole entry): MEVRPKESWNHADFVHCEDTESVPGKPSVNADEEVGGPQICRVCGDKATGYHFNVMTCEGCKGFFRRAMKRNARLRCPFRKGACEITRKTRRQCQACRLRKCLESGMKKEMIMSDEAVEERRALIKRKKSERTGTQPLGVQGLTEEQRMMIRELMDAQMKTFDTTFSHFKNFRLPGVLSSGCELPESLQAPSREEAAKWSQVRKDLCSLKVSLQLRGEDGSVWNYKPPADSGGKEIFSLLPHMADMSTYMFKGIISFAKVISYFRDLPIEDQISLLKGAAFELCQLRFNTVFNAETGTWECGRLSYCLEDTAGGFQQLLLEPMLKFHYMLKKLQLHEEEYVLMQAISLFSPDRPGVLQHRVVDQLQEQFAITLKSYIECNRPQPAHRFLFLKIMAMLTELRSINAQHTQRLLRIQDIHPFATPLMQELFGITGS

[4] = target: Liver X receptor (Homo sapiens) (UniProt Q13133+P55055); test: Agonist activity at LXR (unknown origin) at 10 uM; assay type: protein assay
[5] = target: T3, Bile acid receptor (Homo sapiens) (UniProt Q96RI1); test: Agonist activity at FXR (unknown origin) at 10 uM
T3 sequence (whole entry): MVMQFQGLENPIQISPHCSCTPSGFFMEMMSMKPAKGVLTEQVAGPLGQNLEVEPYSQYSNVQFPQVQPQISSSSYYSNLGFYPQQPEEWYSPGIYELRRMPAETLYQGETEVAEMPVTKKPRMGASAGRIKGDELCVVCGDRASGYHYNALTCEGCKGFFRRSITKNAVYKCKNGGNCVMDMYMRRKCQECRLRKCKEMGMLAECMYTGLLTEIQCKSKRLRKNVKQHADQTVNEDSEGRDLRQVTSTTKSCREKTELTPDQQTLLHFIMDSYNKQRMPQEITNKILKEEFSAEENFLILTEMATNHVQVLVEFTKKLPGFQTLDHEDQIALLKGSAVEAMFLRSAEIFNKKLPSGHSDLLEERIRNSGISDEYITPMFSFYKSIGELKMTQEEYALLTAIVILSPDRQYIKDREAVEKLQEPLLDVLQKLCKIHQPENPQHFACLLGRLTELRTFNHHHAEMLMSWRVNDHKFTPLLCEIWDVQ

[6] = target: T4, Nuclear receptor ROR-alpha (Homo sapiens, UniProt P35398); test: Inverse agonist activity at human ROR-alpha transfected in HEK293T cells by Gal4 luciferase reporter gene assay; assay type: cell-based, HEK-293T
T4 sequence (P35398 whole entry): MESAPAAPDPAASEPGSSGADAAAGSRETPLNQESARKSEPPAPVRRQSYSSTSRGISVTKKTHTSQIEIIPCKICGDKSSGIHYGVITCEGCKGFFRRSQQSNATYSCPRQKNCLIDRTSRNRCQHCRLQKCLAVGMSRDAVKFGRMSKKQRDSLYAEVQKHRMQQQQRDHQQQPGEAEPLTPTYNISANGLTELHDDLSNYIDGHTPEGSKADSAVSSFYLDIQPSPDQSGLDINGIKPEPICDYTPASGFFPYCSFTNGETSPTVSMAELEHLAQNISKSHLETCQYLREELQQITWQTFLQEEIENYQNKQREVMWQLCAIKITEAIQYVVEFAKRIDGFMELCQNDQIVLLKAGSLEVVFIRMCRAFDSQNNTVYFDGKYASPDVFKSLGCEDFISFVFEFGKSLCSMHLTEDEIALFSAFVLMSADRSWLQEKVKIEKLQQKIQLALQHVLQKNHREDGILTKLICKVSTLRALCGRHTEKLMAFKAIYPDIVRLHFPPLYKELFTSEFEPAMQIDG

[7] = target: T5, Nuclear receptor ROR-beta (Homo sapiens, UniProt Q92753); test: Inverse agonist activity at human ROR-beta transfected in HEK293T cells by Gal4 luciferase reporter gene assay; assay type: cell-based, HEK-293T
T5 sequence (Q92753 whole entry): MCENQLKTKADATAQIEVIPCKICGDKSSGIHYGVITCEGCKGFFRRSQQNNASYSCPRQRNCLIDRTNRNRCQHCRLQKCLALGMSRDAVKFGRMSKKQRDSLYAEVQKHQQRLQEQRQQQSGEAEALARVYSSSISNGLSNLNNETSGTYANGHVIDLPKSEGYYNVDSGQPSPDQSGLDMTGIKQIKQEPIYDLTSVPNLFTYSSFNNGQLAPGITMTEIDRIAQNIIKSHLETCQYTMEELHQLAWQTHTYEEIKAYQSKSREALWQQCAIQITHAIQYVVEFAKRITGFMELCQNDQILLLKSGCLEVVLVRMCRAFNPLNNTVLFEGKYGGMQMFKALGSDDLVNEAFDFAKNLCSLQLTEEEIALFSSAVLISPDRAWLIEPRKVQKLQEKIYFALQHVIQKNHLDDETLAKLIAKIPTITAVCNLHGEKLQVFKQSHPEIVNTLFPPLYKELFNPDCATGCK

Cytochrome P450 3A4 = Cytochrome P450 3A4 (Homo sapiens, UniProt P08684); test: Inhibition of CYP3A4 (unknown origin); assay type: ADME
Cytochrome P450 3A4, sequence (P08684 whole entry): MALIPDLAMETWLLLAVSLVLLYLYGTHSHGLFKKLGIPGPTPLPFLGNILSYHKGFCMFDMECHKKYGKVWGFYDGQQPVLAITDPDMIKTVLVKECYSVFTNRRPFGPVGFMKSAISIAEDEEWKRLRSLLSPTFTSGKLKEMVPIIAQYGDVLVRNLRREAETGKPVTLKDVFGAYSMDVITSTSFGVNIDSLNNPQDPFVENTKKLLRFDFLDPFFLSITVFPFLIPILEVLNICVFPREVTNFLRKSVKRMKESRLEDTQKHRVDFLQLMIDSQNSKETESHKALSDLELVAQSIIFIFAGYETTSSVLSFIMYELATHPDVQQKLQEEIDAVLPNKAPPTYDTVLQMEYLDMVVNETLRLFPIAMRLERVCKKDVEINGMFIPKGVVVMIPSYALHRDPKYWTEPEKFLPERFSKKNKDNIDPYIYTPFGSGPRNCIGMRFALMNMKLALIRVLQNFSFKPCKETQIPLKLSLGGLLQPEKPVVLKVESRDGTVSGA

[8] = target: T2, Nuclear receptor subfamily 1 group I member 2; test: Agonist activity at PXR (unknown origin)

Row | Structure (SMILES) | pIC50 [1] | further results
1 | CNC(=O)c1ccc(F)c(-c2ccc(N(CC(F)(F)F)S(=O)(=O)c3cccc4c3ccn4C)cc2)c1 | 5.33 | –
2 | Cc1cc(C2(C(=O)O)CC2)ccc1-c1ccc(N(CC(F)(F)F)S(=O)(=O)c2cccc3c2ccn3C)cc1 | 6.04 | –
3 | CNC(=O)c1cccc(-c2ccc(N(CC(F)(F)F)S(=O)(=O)c3cccc4c3ccn4C)cc2)c1 | 5.49 | –
4 | NC(=O)c1ccc(Cl)c(-c2ccc(N(CC(F)(F)F)S(=O)(=O)c3cccc(Cl)c3)cc2)c1 | 5.38 | –
5 | Cc1cc2nccn2cc1-c1ccc(N(CC(F)(F)F)S(=O)(=O)c2cccc3c2ccn3C)cc1 | 5.55 | –
6 | CNS(=O)(=O)c1cccc(-c2ccc3c(c2)CCCN3C(=O)c2c(F)cccc2Cl)c1 | 5.19 | –
7 | NC(=O)c1ccccc1-c1ccc2c(c1)CCCN2C(=O)c1c(F)cccc1Cl | < 5.00 | –
8 | Cc1ccc(S(=O)(=O)Nc2ccc3c(c2)CCCN3C(=O)c2cccs2)cc1C | 5.83 | –
9 | Cc1cc(CO)ccc1-c1ccc(N(CC(F)(F)F)S(=O)(=O)c2cccc(Cl)c2)cc1 | 5.19 | –
10 | Cc1cc(O)ccc1-c1ccc(N(CC(F)(F)F)S(=O)(=O)c2cccc3c2ccn3C)cc1 | 6.68 | –
11 | Cn1ccc2c(S(=O)(=O)N(CC(F)(F)F)c3ccc4c(c3)CCCN4C(=O)c3cccs3)cccc21 | 7.25 | –
12 | O=S(=O)(c1cccc(Cl)c1)N(CC(F)(F)F)c1ccc(C(O)(C(F)(F)F)C(F)(F)F)cc1 | 7.14 | solubility ([2]; aqueous, read-out: solubility): < 0.5 µg/mL; Activity [3]: 100%; Activity [4]: 100%; Activity [5]: 100%
13 | Cc1ccc(S(=O)(=O)N(CC(F)(F)F)c2ccc3c(c2)CCCN3C(=O)c2cccs2)cc1C | 6.70 | –
14 | NC(=O)c1cccc(-c2ccc(N(CC(F)(F)F)S(=O)(=O)c3cccc(Cl)c3)cc2)c1 | 5.42 | –
15 | NC(=O)c1ccc(Cl)c(-c2ccc3c(c2)CCCN3C(=O)c2c(F)cccc2Cl)c1 | – | pEC50 [6]: 6.41; pEC50 [7]: 5.96; solubility ([2]; aqueous, read-out: solubility): 0.04 µg/mL (≈ 0.0902 µM)
16 | NS(=O)(=O)c1cccc(-c2ccc3c(c2)CCCN3C(=O)c2c(F)cccc2Cl)c1 | 5.00 | –
17 | CNC(=O)c1ccc(F)c(-c2ccc(N(CC(F)(F)F)S(=O)(=O)c3cccc(Cl)c3)cc2)c1 | 5.11 | –
18 | Cc1ccc(S(=O)(=O)N(CC(F)(F)F)c2ccc3c(c2)CCCN3C(=O)c2c(F)cccc2Cl)cc1C | 8.00 | solubility ([2]; buffer): Insoluble; inhibition (INH) (Cytochrome P450 3A4): Active; Activity [8]: Active
19 | O=C(c1cc(F)cc(-c2ccc3c(c2)CCCN3C(=O)c2c(F)cccc2Cl)c1)N1CCOCC1 | 5.09 | –

Now from value to compound, other results behind:

Row | pIC50 [1] | Structure (SMILES) | further results
20 | 5.82 | Cn1ccc2c(S(=O)(=O)N(CC(F)(F)F)c3ccc(-c4cccc(C(N)=O)c4)cc3)cccc21 | –
21 | 6.20 | Cc1cc(CO)ccc1-c1ccc(N(CC(F)(F)F)S(=O)(=O)c2cccc3c2ccn3C)cc1 | –
22 | 7.14 | Cn1ccc2c(S(=O)(=O)N(CC(F)(F)F)c3ccc(C(O)(C(F)(F)F)C(F)(F)F)cc3)cccc21 | solubility ([2]; aqueous, read-out: solubility): < 0.5 µg/mL; Activity [3]: 100%; Activity [4]: 100%; Activity [5]: 100%
23 | < 5.00 | CNC(=O)c1cccc(-c2ccc(N(CC(F)(F)F)S(=O)(=O)c3cccc(Cl)c3)cc2)c1 | –
24 | 5.72 | O=C(c1ccc(F)c(-c2ccc3c(c2)CCCN3C(=O)c2c(F)cccc2Cl)c1)N1CCCC1 | –
25 | 6.28 | Cc1cc(O)ccc1-c1ccc(N(CC(F)(F)F)S(=O)(=O)c2cccc(Cl)c2)cc1 | –
26 | 6.28 | Cc1cc2nccn2cc1-c1ccc(N(CC(F)(F)F)S(=O)(=O)c2cccc(Cl)c2)cc1 | –
27 | < 5.00 | Cc1cc(C2(C(=O)O)CC2)ccc1-c1ccc(N(CC(F)(F)F)S(=O)(=O)c2cccc(Cl)c2)cc1 | –
